# Experimental data: article PMC7588595, “Small-molecule active pharmaceutical ingredients of approved cancer therapeutics inhibit human aspartate/asparagine-β-hydroxylase” (Bioorganic & Medicinal Chemistry, 2020)
# Where a name gives a salt, the structure may show the parent alone. Read-outs that look alike come from different tables or passages of the source.
# Target: T1, human AspH (His6-AspH315–758) (Homo sapiens, UniProt Q12797)
# T1 construct: N-Terminally His6-tagged human AspH315–758 (His6-AspH315–758) was produced in Escherichia coli BL21 (DE3) cells; made in house; host or cells: Escherichia coli BL21 (DE3), pET-28a(+) vector
# T1 sequence (Q12797 315-758): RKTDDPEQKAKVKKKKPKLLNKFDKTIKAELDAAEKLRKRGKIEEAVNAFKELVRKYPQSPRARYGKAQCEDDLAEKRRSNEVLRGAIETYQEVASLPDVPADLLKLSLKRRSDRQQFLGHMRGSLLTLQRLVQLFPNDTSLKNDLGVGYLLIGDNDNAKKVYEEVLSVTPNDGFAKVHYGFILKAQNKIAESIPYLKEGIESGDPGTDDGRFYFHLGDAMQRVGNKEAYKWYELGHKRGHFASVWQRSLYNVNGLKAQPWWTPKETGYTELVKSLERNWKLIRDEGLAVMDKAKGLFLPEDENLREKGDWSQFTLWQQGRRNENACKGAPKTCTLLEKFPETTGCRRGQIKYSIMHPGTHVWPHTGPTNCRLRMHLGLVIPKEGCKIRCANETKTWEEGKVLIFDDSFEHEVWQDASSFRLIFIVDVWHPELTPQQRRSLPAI
# Assay: SPE-MS AspH inhibition assay (hFX-CP101-119 substrate hydroxylation)
# Format: biochemical
# [1] = AspH-inhibitor screening, 384-well Plate 1
# [2] = AspH-inhibitor screening, 384-well Plate 1, substrate conversion
# [3] = AspH-inhibitor screening, Plate 1-duplicate
# [4] = AspH-inhibitor screening, Plate 1-duplicate, substrate conversion
# [5] = 20 μM fixed inhibitor, 50 nM His6-AspH315–758, 1 μM hFX-CP101–119, 100 μM LAA, 3 μM 2OG, 2 μM FAS, 50 mM HEPES pH 7.5, 20 °C, relative to DMSO and 2,4-PDCA controls
Plate 1 (% inhibition) [1],Plate 1 (% conversion) [2],Plate 1-duplicate (% inhibition) [3],Plate 1-duplicate (% conversion) [4],SMILES,further results
–,–,–,–,CC[C@H](CO)Nc1nc(NCc2ccccc2)c2ncn(C(C)C)c2n1 [Roscovitine_Selicilib],Plate 1 (% conversion): 48.67%; Plate 1-duplicate (% conversion): 50.17%
-12.94%,55.72%,-30.32%,67.08%,Cc1ccc(C(=O)N(CCCN)[C@@H](c2oc3cc(Cl)ccc3c(=O)c2Cc2ccccc2)C(C)C)cc1 [SB 743921],–
33.05%,34.49%,43.66%,30.39%,CC(C)n1cnc2c(NCCc3ccc(O)cc3)nc(-c3csc4ccccc34)nc21.Cl [SR1 HCl],–
-15.63%,56.97%,-16.09%,60.02%,CCC(C)(C)C(=O)O[C@H]1C[C@@H](C)C=C2C=C[C@H](C)[C@H](CC[C@@H]3C[C@@H](O)CC(=O)O3)[C@H]21 [Simvastatin],–
50.93%,26.23%,41.45%,31.48%,CNC(=O)c1cc(Oc2ccc(NC(=O)Nc3ccc(Cl)c(C(F)(F)F)c3)cc2)ccn1 [Sorafenib],–
20.56%,40.26%,11.48%,46.35%,CN1CCN(c2nc(C3=C(c4c[nH]c5ccccc45)C(=O)NC3=O)c3ccccc3n2)CC1 [Sotrastaurin],–
6.30%,46.84%,4.95%,49.58%,CN(N=O)C(=O)N[C@@H](C=O)[C@@H](O)[C@H](O)[C@H](O)CO [Streptozocin],–
-40.27%,68.35%,-34.40%,69.10%,CCN(CC)CCNC(=O)c1c(C)[nH]c(/C=C2\C(=O)Nc3ccc(F)cc32)c1C [Sunitinib],–
-22.47%,60.13%,-22.24%,63.07%,Cn1c(=O)c(F)c(Nc2ccc(I)cc2F)c2c(=O)n(C[C@@H](O)CO)cnc21 [TAK-733],–
-15.73%,57.02%,-23.07%,63.48%,CCS(=O)(=O)c1cccc(-c2cc(C(=O)NC3CCN(C)CC3)c(C)c3[nH]c4ncc(C)cc4c23)c1 [TAK-901],–
-1.55%,50.47%,0.18%,51.95%,Cc1cc(C(C)Nc2ccccc2)c2nc(N3CCOCC3)cc(=O)n2c1 (centres unmarked) [TGX-221],–
67.86%,18.41%,59.34%,22.61%,CC/C(=C(\c1ccccc1)c1ccc(OCCN(C)C)cc1)c1ccccc1 [Tamoxifen citrate],–
-11.71%,55.16%,-8.54%,56.28%,COc1cc2c(N3CCN(C(=O)Nc4ccc(OC(C)C)cc4)CC3)ncnc2cc1OCCCN1CCCCC1 [Tandutinib],–
9.63%,45.30%,6.13%,49.00%,C[C@@H]1CCN(C(=O)CC#N)C[C@@H]1N(C)c1ncnc2[nH]ccc12 [Tasocitinib_Tofacitinib],–
5.12%,47.38%,8.46%,47.85%,Cn1nnc2c(C(N)=O)ncn2c1=O [Temozolomide],–
35.77%,33.23%,28.92%,37.70%,CO[C@H]1C[C@@H]2CC[C@@H](C)[C@@](O)(O2)C(=O)C(=O)N2CCCC[C@H]2C(=O)O[C@H]([C@H](C)C[C@@H]2CC[C@@H](OC(=O)C(C)(CO)CO)[C@H](OC)C2)CC(=O)[C@H](C)/C=C(\C)[C@@H](O)[C@@H](OC)C(=O)[C@H](C)C[C@H](C)/C=C/C=C/C=C/1C [Temsirolimus],–
10.91%,44.71%,6.57%,48.78%,COc1cc([C@@H]2c3cc4c(cc3[C@@H](O[C@@H]3O[C@@H]5CO[C@@H](c6cccs6)O[C@H]5[C@H](O)[C@H]3O)[C@H]3COC(=O)[C@H]23)OCO4)cc(OC)c1O [Teniposide],–
–,–,–,–,Cl.c1ccc(C2CN3CCSC3=N2)cc1 (centres unmarked) [Tetramisole HCl],Plate 1 (% conversion): 46.13%; Plate 1 (% inhibition): 7.83%; Plate 1-duplicate (% conversion): 48.14%; Plate 1-duplicate (% inhibition): 7.87%
3.16%,48.29%,1.43%,51.33%,O=C1CCC(N2C(=O)c3ccccc3C2=O)C(=O)N1 (centres unmarked) [Thalidomide],–
7.28%,46.39%,8.14%,48.00%,Nc1nc2nc[nH]c2c(=S)[nH]1 [Thioguanine],–
-67.01%,80.70%,-61.42%,82.50%,Cn1cncc1[C@@](N)(c1ccc(Cl)cc1)c1ccc2c(c1)c(-c1cccc(Cl)c1)cc(=O)n2C [Tipifarnib (Zarnestra)],–
4.87%,47.50%,6.81%,48.66%,CC[C@@]1(O)C(=O)OCc2c1cc1n(c2=O)Cc2cc3c(CN(C)C)c(O)ccc3nc2-1 [Topotecan hydrochloride],–
75.12%,15.06%,75.95%,14.37%,CN(C)CCOc1ccc(/C(=C(/CCCl)c2ccccc2)c2ccccc2)cc1 [Toremifene citrate],–
71.19%,16.88%,64.04%,20.28%,CC1=C(/C=C/C(C)=C/C=C/C(C)=C/C(=O)O)C(C)(C)CCC1 [Tretinoin],–
–,–,–,–,C1CN1c1nc(N2CC2)nc(N2CC2)n1 [Triethylenemelamine],Plate 1 (% conversion): 46.54%; Plate 1 (% inhibition): 6.96%; Plate 1-duplicate (% conversion): 50.74%; Plate 1-duplicate (% inhibition): 2.63%
1.86%,48.89%,-0.91%,52.49%,O=c1[nH]c(=O)n([C@H]2C[C@H](O)[C@@H](CO)O2)cc1C(F)(F)F [Trifluridine],–
92.77%,6.91%,87.89%,8.45%,"O=C(CCCCCCC(=O)Nc1ccc([C@H]2O[C@@H](CSc3nc(-c4ccccc4)c(-c4ccccc4)o3)C[C@@H](c3ccc(CO)cc3)O2)cc1)NO [Tubacin, reference compound]","IC50 (50 nM His6-AspH315–758, 1 μM hFX-CP101–119, 100 μM LAA, 3 μM 2OG, 2 μM FAS, 50 mM HEPES pH 7.5, 20 °C, read-out: IC50): 4.12 ± 0.5 µM; AspH inhibition at 20 μM [5]: 90.3 ± 3.5%; inhibition at 20 µM [5]: > 90%; IC50 (read-out: IC50 at 10 μM substrate, 10 μM hFX-CP101–119 and 10 μM 2OG instead of 1 μM hFX-CP101–119 and 3 μM 2OG): 3.57 ± 0.1 µM; IC50 (read-out: IC50 at 20 μM Fe(II), 20 μM Fe(II) instead of 2 μM Fe(II)): 4.91 ± 1.63 µM; IC50 (read-out: IC50 at 200 μM 2OG, 200 μM 2OG instead of 3 μM 2OG): 5.69 ± 0.7 µM"
-13.29%,55.89%,-15.22%,59.59%,CN1CCc2c(c3ccccc3n2Cc2ccc(C(=O)NO)cc2)C1.Cl [Tubastatin A HCl],–

SMILES,Plate 1 (% inhibition) [1],Plate 1 (% conversion) [2],Plate 1-duplicate (% inhibition) [3],Plate 1-duplicate (% conversion) [4],further results
C/C=C1\NC(=O)[C@H]2CSSCC/C=C/[C@H](CC(=O)N[C@H](C(C)C)C(=O)N2)OC(=O)[C@H](C(C)C)NC1=O [Romidepsin],31.77%,35.08%,29.51%,37.41%,–
O=[N+]([O-])c1ccc2c(c1)S(=O)(=O)C=C2 [Stattic],9.52%,45.35%,9.59%,47.29%,–
S=P(N1CC1)(N1CC1)N1CC1 [Thio-TEPA],17.81%,41.53%,7.73%,48.21%,–
